Reference: US12029774B2, “Açai berry seed extract, fractions of açai berry seed extracts, process for obtaining açai berry seed extracts, pharmaceutical and food compositions and method for the treatment of diseases or disorders with açai berry seed extract” (Power Seed Comércio e Representações Ltda, priority 2018, dated 2024)

System: mesenteric vascular bed
Experiment: In vitro arteries relaxation test (perfused mesenteric vascular bed pre-contracted with noradrenaline)
Parameters: species or system Wistar mice
Conditions: inferred from HPLC-MSMS/CCD of EHA and fraction 4 with FIGS. 6a and 6e; component not tested alone
Description: The vasodilatory activity of EHA and/or its fractions was determined and quantified by ID50 (Inhibitory Dose at 50%) in preparation of the mesenteric arterial bed of male and adult Wistar mice, in vitro. After anesthesia (thiopental, […] ip), a broad laparotomy is performed to the mice in order to expose the entire mesenteric circulation. The mesenteric artery was isolated and cannulated with cannula and polyethylene. Immediately 1 to 2 ml of Krebs nourishing solution with heparin was injected in order to avoid mesenteric intravascular coagulation. The mesenteric vascular bed was dissected, placed in a heated tub and perfused with Krebs solution at 37° C., by peristaltic pump (4 ml/minute). The perfusion pressure was recorded continuously in computer, through program (PowerLab 4/30). After a period of equilibration, it was added (30 μM) noradrenaline in the Krebs fluid in order to raise the vascular tone of the mesenteric vascular bed. Once the noradrenaline constant pressure response was obtained in the mesenteric vascular bed, increasing doses of EHA and/or fractions in the mesenteric vascular bed were injected. Perfusion pressure reductions induced by extracts and/or fractions were analyzed by the computer and expressed as reduction percent of noradrenaline-induced pressure response. […]

Oc1cc(O)c2c(c1)O[C@H](c1ccc(O)c(O)c1)[C@H](O)[C@H]2c1c(O)cc(O)c2c1O[C@H](c1ccc(O)c(O)c1)[C@H](O)C2 [procyanidin B2]
activity of extract component inferred from chromatogram and artery relaxation test: compound with the highest activity
